On series [1], the source says: For the following, non-limiting, sparingly soluble drugs in water, the solubility in α-tocopherol and sesame oil are listed in Table 1:
Sesame oil was chosen as the reference, because it is a very commonly used and well tolerated vegetable oil. The solubilities in sesame oil and α-tocopherol were investigated by visual inspection of the saturation point.

The conditions of series [2]: cited from earlier work.
For series [3] the following is noted: cited from earlier work. The source holds these as a separate data set.
The mark [4] stands for this setting: solubility in sesame oil (reference).

The values below come from US6193985A, “Tocopherol compositions for delivery of biologically active agents” (priority 1994, dated 2001).

Like-named read-outs stand apart in the source and are kept apart here.

On to `CCCC1O[C@@H]2C[C@H]3[C@@H]4CCC5=CC(=O)C=C[C@]5(C)[C@H]4[C@@H](O)C[C@]3(C)[C@]2(C(=O)CO)O1` (stereo partly shown) [Budesonide, budesonide], for which the “g drug in 100 g of sesame oil” value in series [1] (setting [4]) is on record as under 0.1 g drug in 100 g.

Take `C(=C\c1ccccc1)/CN1CCN(C(c2ccccc2)c2ccccc2)CC1` [Cinnarizine, cinnarizine]: in series [1], the “g drug in 100 g of sesame oil” value is given as 2-4 g drug in 100 g and the “g drug in 100 g of α-tocopherol” value was 11-18 g drug in 100 g. Further, in series [2], the “solubility in water (in words)” value is “very low water solubility”. The oral bioavailability entry in series [3] (if dissolved in a vehicle before administration) was “higher oral bioavailability”.

Take `CCN(CC)C(=S)SSC(=S)N(CC)CC` [Disulfiram, disulfiram]: in series [1] (solubility in α-tocopherol), the “g drug in 100 g of α-tocopherol” value is 5 g drug in 100 g.

Take `CCN(CC)CCNC(=O)c1cc(Cl)c(N)cc1OC` [Metoclopramide]: in series [1], the “g drug in 100 g of sesame oil” value is recorded as under 2 g drug in 100 g and the “g drug in 100 g of α-tocopherol” value is on record as 2-4 g drug in 100 g.

As for `Cc1ncc([N+](=O)[O-])n1CCOC(=O)c1ccccc1` [Metronidazole benzoate], in series [1] (setting [4]), the “g drug in 100 g of sesame oil” value is on record as under 2 g drug in 100 g.

For `Clc1ccc(COC(Cn2ccnc2)c2ccc(Cl)cc2Cl)c(Cl)c1` (stereo not shown) [Miconazole, miconazole], the “g drug in 100 g of α-tocopherol” value in series [1] (solubility in α-tocopherol) was determined as 60 g drug in 100 g.

As for `Cc1ncc2n1-c1ccc(Cl)cc1C(c1ccccc1F)=NC2` [Midazolam, midazolam], the “g drug in 100 g of α-tocopherol” value in series [1] (solubility in α-tocopherol) was over 13 g drug in 100 g. For the same molecule, the first-pass effect result in series [3] (after oral administration) is on record as “very high first-pass effect”.

On to `CC(=O)[C@H]1CC[C@H]2[C@@H]3CCC4=CC(=O)CC[C@]4(C)[C@H]3CC[C@]12C` [Progesterone], for which the “g drug in 100 g of α-tocopherol” value in series [1] (solubility in α-tocopherol) is over 30 g drug in 100 g.
